Reference: US20220088146A1, “Melanocortin Receptor-Specific Peptide Formulations and Methods for Gastrointestinal Tract-Specific Delivery” (Palatin Technologies, Inc., priority 2018, published 2022)

Legend:
MC1r = test: Functional selectivity evaluation at Cerep, MC1r; assay type: cell-based
MC2r = target: T1, MC2r (Homo sapiens, UniProt Q01718); test: Functional selectivity evaluation at Cerep, MC2r; assay type: cell-based
T1 construct: Cerep
Description: The results were as follows:

MC3r = target: T2, MC3r (Homo sapiens, UniProt P41968); test: Functional selectivity evaluation at Cerep, MC3r; assay type: cell-based
T2 construct: Cerep

MC5r = target: T3, MC5r (Homo sapiens, UniProt P33032); test: Functional selectivity evaluation at Cerep, MC5r; assay type: cell-based
T3 construct: Cerep

TNF-α = test: Lipopolysaccharide-induced TNF-α inhibition in vitro; assay type: cell-based
72 in vitro assays = test: Eurofins lead profile; conditions: 10 μM
[1] = test system: DNBS-induced bowel inflammation; test: Cannulated rat DNBS model of bowel inflammation, intracolonic dosing; assay type: in vivo; conditions: 0.5 μg and 5.0 μg intracolonic, Wistar rats
Procedure: The rats were implanted with a catheter in the proximal part of the ascending colon, which exited out the nape of the neck for dosing access. […] Non-cannulated control rats were administered sulfasalazine (positive controls) and vehicle (untreated controls).

[2] = Plasma assay for systemic peptide in DNBS colitis rats after oral capsules; assay type: in vivo, rat; conditions: oral capsules of Lot 41
[3] = Human clinical microdose study of C14-labeled oral formulation; assay type: in vivo; conditions: single oral microdose of C14-labeled Example 9.3 formulated as for Lot 41
Description: A combination of Eudragit® L100-55, Eudragit® S-100 and Eudragit® FS30D polymethacrylates were selected and utilized at a weight ratio of 23.25:23.0:12.5, where the weight of L100-55 and S-100 was dry weight of solid material, and the weight of FS30D was of a commercially prepared aqueous formulation wherein the 12.5 grams of liquid FS30D contained 3.75 grams polymer, for a weight ratio of polymer of 23.25:23:3.75. The combination of polymethacrylates were placed in acetone and stirred for an extended period. […] The dried material was retrieved, diluted with additional dried polymetacrylate mixture not containing peptide to obtain the desired target concentration in a predetermined quantity of material, and milled to the desired diameter and sieved. The sieved material was placed within a gelatin size 2 capsule to provide an oral formulation.
The oral formulation was administered in a microdose level to 24 subjects, divided into six cohorts of 4 subjects each.
The only radioactive material identified in urine was the C14 labelled phenylalanine.

[4] = Dissolution of Eudragit microparticles, USP Apparatus 2; assay type: physicochemical; conditions: Lot 40 microparticles (FIG. 8)
Procedure: About 1 g of the microparticles was accurately weighed and suspended in the acid at 37° C. for 2 hours. The pH of the medium was then sequentially adjusted to pH 5.5 for 1 hour, pH 6.8 for another hour and finally to pH 7.4 for 7 hours.

MC4r [5] = target: T4, MC4r (Homo sapiens, UniProt P32245); test: cell-based
MC4r [6] = target: T4, MC4r; test: Competitive inhibition binding assay using [I125]-NDP-α-MSH, hMC4r membranes; design: expressed in transfected cells; host or cells: HEK-293; conditions: human recombinant MC4r, HEK-293 membranes, read-out: MC-4 Ki (average)
Procedure: A competitive inhibition binding assay was performed using membrane homogenates prepared from HEK-293 cells that express recombinant hMC1r or hMC4r (in each instance where the h prefix refers to human), or alternatively membrane homogenates from B16-F10 mouse melanoma cells containing endogenous murine MC1r. In the examples that follow, all MC1r and MC4r values are for human recombinant receptors, unless otherwise noted. Assays were performed in 96 well polypropylene round-bottom plates (VWR catalog number 12777-030). […] After incubation for 90 minutes at 37° C., the assay mixture was filtered onto GF/B Unifilter plates (Perkin-Elmer catalog number 6005177) and washed with 3 mL of ice-cold buffer per well. Filters were air dried and 35 μL of scintillation cocktail added to each well. Plates were counted in a Microbeta counter for bound radioactivity. […] Each assay was conducted in duplicate and the actual mean values are described, with results less than 0% reported as 0%. Ki values for peptides of the present invention were determined using Graph-Pad Prism® curve-fitting software.
All results are expressed in nM except for Emax values, which are percentage values. Peptides with the captioned primary sequence were synthesized and purified as described in Section 7 above, with the resulting peptide having the structure depicted.

hMC1r = hMC1r (Homo sapiens, UniProt Q01726); test: Assay for agonist activity: cAMP accumulation in HBL melanoma cells; assay type: cell-based; design: endogenous in cells; host or cells: HBL human melanoma cells; conditions: HBL, compared to NDP-α-MSH as 100%, read-out: MC-1 Emax (average; cAMP HBL)
hMC1r, sequence (Q01726 whole entry): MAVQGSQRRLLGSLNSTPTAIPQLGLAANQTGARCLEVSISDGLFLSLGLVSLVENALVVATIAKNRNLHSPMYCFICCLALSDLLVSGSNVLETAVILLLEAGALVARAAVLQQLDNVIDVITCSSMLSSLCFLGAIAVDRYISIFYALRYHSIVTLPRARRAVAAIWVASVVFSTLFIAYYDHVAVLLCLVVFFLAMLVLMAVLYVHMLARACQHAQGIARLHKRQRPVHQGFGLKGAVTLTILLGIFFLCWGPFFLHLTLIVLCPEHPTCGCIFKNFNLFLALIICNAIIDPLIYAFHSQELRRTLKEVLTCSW

T4 sequence (P32245 whole entry): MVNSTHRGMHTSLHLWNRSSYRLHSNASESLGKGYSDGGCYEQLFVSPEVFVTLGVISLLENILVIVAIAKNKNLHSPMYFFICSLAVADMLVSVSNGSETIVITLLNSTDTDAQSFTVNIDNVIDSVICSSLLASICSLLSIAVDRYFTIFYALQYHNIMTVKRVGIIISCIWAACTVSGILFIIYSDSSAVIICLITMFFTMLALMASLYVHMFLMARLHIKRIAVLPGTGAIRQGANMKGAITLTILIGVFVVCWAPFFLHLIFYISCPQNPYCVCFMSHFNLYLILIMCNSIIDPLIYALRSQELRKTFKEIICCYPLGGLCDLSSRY
T2 sequence (P41968 whole entry, species assumed): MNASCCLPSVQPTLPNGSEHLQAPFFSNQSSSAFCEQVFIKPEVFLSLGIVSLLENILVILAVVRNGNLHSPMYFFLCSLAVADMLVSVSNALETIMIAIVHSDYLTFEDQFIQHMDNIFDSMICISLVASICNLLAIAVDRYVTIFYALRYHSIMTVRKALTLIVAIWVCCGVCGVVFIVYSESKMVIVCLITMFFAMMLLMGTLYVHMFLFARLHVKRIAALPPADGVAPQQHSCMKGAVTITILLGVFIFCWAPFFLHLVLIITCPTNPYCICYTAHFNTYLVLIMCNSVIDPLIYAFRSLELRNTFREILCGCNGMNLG
T1 sequence (Q01718 whole entry, species assumed): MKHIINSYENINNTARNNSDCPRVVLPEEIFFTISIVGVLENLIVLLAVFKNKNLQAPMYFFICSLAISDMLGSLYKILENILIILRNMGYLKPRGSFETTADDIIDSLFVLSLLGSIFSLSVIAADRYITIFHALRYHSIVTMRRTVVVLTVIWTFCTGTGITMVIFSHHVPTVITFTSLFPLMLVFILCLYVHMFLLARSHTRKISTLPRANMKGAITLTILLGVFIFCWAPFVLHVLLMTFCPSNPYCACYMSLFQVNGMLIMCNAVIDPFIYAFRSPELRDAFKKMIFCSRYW
T1 sequence (Q8TCY5 whole entry partner, species assumed): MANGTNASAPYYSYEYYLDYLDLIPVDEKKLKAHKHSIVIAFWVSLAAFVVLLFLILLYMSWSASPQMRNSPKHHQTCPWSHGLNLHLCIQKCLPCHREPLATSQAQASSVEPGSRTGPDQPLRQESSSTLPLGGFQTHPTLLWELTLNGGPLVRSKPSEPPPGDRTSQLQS
T3 sequence (P33032 whole entry, species assumed): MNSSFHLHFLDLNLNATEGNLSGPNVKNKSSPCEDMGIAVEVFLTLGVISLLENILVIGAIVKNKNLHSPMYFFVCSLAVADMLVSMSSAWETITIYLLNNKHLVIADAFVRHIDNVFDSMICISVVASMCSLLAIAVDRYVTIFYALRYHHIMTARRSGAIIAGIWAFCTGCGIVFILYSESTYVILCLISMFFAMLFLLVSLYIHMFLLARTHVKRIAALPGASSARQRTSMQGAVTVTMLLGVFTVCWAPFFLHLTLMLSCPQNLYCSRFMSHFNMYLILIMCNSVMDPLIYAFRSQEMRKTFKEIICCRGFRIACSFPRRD

In the case of CCCC[C@H](NC(C)=O)C(=O)N[C@H]1CCC(=O)NC[C@@H](C(=O)N[C@@H](Cc2c[nH]c3ccccc23)C(N)=O)NC(=O)[C@H](CCCNC(=N)N)NC(=O)[C@@H](Cc2ccccc2)NC(=O)[C@H](Cc2c[nH]cn2)NC1=O [Example 9.3, Ac-Nle-cyclo(Glu-His-D-Phe-Arg-Dap)-Trp-NH2], the EC50 (MC1r) is reported as 0.57 nM, the EC50 (MC2r) is reported as over 10000 nM and the EC50 (MC3r) is reported as over 10000 nM. For the same molecule, the EC50 (MC5r) was over 10000 nM, the “lipopolysaccharide-induced TNF-α inhibition” value (TNF-α) was “comparable to α-MSH and ACTH” and the “activity in 72 in vitro assays (Eurofins lead profile)” value (72 in vitro assays) was “no activity was detected”. For the same molecule, the inflammation score ([1]; FIG. 1A) was “as active as sulfasalazine”, the colon weight ([1]; FIG. 1B) was “as active as sulfasalazine” and the “systemic peptide in plasma” value [2] was “did not detect any”. The “intact peptide in plasma or urine” value [3] was “no intact peptide”, the “peptide levels in fecal samples” value [3] was “significant and approximately equal levels” and the “peptide release from microparticles” value ([4]; buffer pH 4.5-5.5) was “no release”. The “peptide release from microparticles” value ([4]; buffer pH adjusted over time 4.5-7.5) was “approximately total release”, the EC50 (MC4r [5]) was 510 nM and the Ki (MC4r [6]) was 510 nM. It also gave an Emax (hMC1r) of 91%.
